From patent publication US20090221559A1 (priority 2005, published 2009)
Where two headings read alike, the source gives them in different places.

Assays:
[1] = biological target: T1, HCV NS5B polymerase (His-tagged, C-terminal 21 amino acid deleted NS5B, HC-J4) (Hepatitis C virus genotype 1b, UniProt O92972); test: NS5b polymerase assay (biochemical RdRp assay, 3H-GTP incorporation, SPA beads); design: species or system HCV genotype 1b
T1 construct: The cDNA encoding NS5B amino acid 1-570 (HC-J4, genotype 1b); His tag (His6, from pET-21b) (C); made in house; host or cells: E. coli BL21 (DE3)
T1 sequence (O92972 2417-3000, looked up, stated change not applied): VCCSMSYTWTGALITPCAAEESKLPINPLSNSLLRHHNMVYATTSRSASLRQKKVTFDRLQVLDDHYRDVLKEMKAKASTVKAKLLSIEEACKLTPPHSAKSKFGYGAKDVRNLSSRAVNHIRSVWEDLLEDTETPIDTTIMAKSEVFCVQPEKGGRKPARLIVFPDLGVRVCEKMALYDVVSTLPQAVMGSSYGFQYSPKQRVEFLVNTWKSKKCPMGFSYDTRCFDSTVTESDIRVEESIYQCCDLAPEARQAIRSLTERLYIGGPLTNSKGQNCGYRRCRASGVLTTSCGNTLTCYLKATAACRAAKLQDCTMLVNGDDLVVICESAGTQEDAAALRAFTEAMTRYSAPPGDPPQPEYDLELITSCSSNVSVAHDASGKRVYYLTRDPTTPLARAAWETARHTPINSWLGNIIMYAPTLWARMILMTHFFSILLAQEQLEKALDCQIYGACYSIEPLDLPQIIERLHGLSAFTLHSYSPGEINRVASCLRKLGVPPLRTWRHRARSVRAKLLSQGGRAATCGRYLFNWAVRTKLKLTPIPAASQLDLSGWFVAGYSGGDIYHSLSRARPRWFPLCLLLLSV
Procedure, shortened: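 3H-GTP incorporation into newly made RNA was captured on SPA beads added in EDTA after 2 h at 25 °C. Compounds in DMSO met preformed enzyme–template complex (200 nM truncated His-NS5B, HC-J4 1b; biotin-oligo(rG13)/poly(rC)) for 15 min at RT, then 600 nM GTP, 5 mM MgCl2, Tris pH 7.5 started polymerization.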

[2] = tested on: HCV replicon RNA replication in Huh-7 luc/neo (Huh-Luc) cells; test: HCV replicon assay (stable replicon cell reporter assay, luciferase read-out); type: cell-based, HCV type 1b
Procedure, shortened: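 Three-day compound exposure used Huh-Luc cells, which harbour an autonomously replicating genotype 1b NS3-NS5B replicon expressing luciferase and neo^R. Luciferase signal served as the replication read-out, and dose-response curves came from several concentrations per compound.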

[3] = NS5B Polymerase Assay IC50, 200 nM enzyme, 3H-GTP incorporation, 2 h at 25° C.
[4] = Hepatitis C virus, Huh-7, 72 h, read-out: Replicon Assay EC50, Huh-Luc cells, three days incubation, luciferase activity
[5] = 200 nM enzyme, 3H-GTP incorporation, 2 h at 25° C., read-out: NS5B Polymerase Assay IC50
[6] = Huh-Luc cells, three days incubation, luciferase activity, read-out: Replicon Assay EC50
[7] = NS5B Polymerase Assay IC50 (μM)
[8] = Hepatitis C virus, Huh-7, 72 h, read-out: Replicon Assay EC50 (μM), Huh-Luc cells, incubation of three days, luciferase activity

Structure (SMILES) | IC50 [1, 7] | EC50 [2, 8] | also measured
CC(=O)N1c2ccccc2NC2=C(C(=O)CCC2)C1c1ccc(Cl)cc1Cl (centres unmarked) [compound 291, 10-Acetyl-11-(2,4-dichlorophenyl)-2,3,4,5,10,11-hexahydro-1H-dibenzo[b,e][1,4]-diazepin-1-one] | – | – | IC50 [1, 3]: > 42.7 µM; EC50 [2, 4]: > 32 µM
COc1ccc(C2C3=C(CC(c4ccco4)CC3=O)Nc3ccccc3N2C(C)=O)cc1OC (centres unmarked) [compound 293] | – | – | IC50 [1, 3]: > 42.7 µM; EC50 [2, 4]: > 32 µM
CC(=O)N1c2ccccc2NC2=C(C(=O)CC(C)C2)C1c1ccc(Cl)cc1Cl (centres unmarked) [compound 294, 10-acetyl-11-(2,4-dichlorophenyl)-3-methyl-2,3,4,5,10,11-hexahydro-1H-dibenzo[b,e][1,4]diazepin-1-one] | – | – | IC50 [1, 3]: 10.4 µM; EC50 [2, 4]: 42 µM
CCN(CC)c1ccc(C2CC(=O)C3=C(C2)Nc2ccccc2N(C(=O)c2ccccc2)C3c2ccco2)cc1 (centres unmarked) [compound 295] | – | – | IC50 [1, 3]: > 42.7 µM; EC50 [2, 4]: 21.6 µM
O=C1CC(c2cccc([N+](=O)[O-])c2)CC2=C1C(c1ccco1)N(C(=O)C(F)(F)F)c1ccccc1N2 (centres unmarked) [compound 296] | – | – | IC50 [1, 3]: > 42.7 µM; EC50 [2, 4]: 18.3 µM
O=C1CC(c2ccco2)CC2=C1C(c1ccco1)N(C(=O)C(F)(F)F)c1ccccc1N2 (centres unmarked) [compound 297] | – | – | IC50 [1, 3]: > 42.7 µM; EC50 [2, 4]: 23.6 µM
COc1ccc(C2CC(=O)C3=C(C2)Nc2ccccc2N(C(C)=O)C3c2ccco2)cc1 (centres unmarked) [compound 298] | – | – | IC50 [1, 5]: > 42.7 µM; EC50 [2, 6]: > 32 µM
CC(=O)N1c2ccccc2NC2=C(C(=O)CC(c3ccccc3OCc3ccccc3)C2)C1C(Br)=Cc1ccccc1 (centres unmarked) [compound 300] | – | – | IC50 [1, 5]: > 133 µM; EC50 [2, 6]: 0.706 µM
COc1cc2c(cc1OC)N(C(C)=O)C(c1ccc(Cl)cc1Cl)C1=C(CC(C)(C)CC1=O)N2 (centres unmarked) [compound 309, 10-acetyl-7,8-dimethoxy-11-(2,4-dichlorophenyl)-3,3-dimethyl-2,3,4,5,10,11-hexahydro-1H-dibenzo[b,e][1,4]diazepin-1-one] | – | – | IC50 [1, 3]: > 133 µM; EC50 [2, 4]: 39.6 µM
CC(=O)N1c2cc(F)c(F)cc2NC2=C(C(=O)CC(C)(C)C2)C1c1ccc(Cl)cc1Cl (centres unmarked) [compound 310, 10-acetyl-7,8-difluoro-11-(2,4-dichlorophenyl)-3,3-dimethyl-2,3,4,5,10,11-hexahydro-1H-dibenzo[b,e][1,4]diazepin-1-one] | – | – | IC50 [1, 3]: 14.5 µM; EC50 [2, 4]: 16.4 µM
CC(=O)N1c2cccc(Br)c2NC2=C(C(=O)CC(C)(C)C2)C1c1ccc(Cl)cc1Cl (centres unmarked) [compound 312] | – | – | IC50 [1, 3]: 6.11 µM; EC50 [2, 4]: 7.81 µM
CC(=O)N1c2c(C)cccc2NC2=C(C(=O)CC(C)(C)C2)C1c1ccc(Cl)cc1Cl (centres unmarked) [compound 314] | – | – | IC50 [1, 3]: 4.43 µM; EC50 [2, 4]: 3 µM
CC(=O)N1c2cccc(C#N)c2NC2=C(C(=O)CC(C)(C)C2)C1c1ccc(Cl)cc1Cl (centres unmarked) [compound 316] | – | – | IC50 [1, 3]: 6.97 µM; EC50 [2, 4]: 15.4 µM
CCCCOc1cccc2c1NC1=C(C(=O)CC(C)(C)C1)C(c1ccc(Cl)cc1Cl)N2C(C)=O (centres unmarked) [compound 317] | – | – | IC50 [1, 3]: > 133 µM; EC50 [2, 4]: 5.75 µM
COc1cccc2c1NC1=C(C(=O)CC(C)(C)C1)C(c1ccc(Cl)cc1Cl)N2C(C)=O (centres unmarked) [compound 320] | – | – | IC50 [1, 3]: 6.77 µM; EC50 [2, 4]: 33 µM
COc1ccc(C2CC(=O)C3=C(C2)Nc2ccccc2NC3c2ccccc2C(F)(F)F)cc1 (centres unmarked) [compound 324] | > 42.6 µM | 18.5 µM | –
O=C1CC(c2ccccc2)CC2=C1C(c1ccc(Cl)cc1)Nc1ccccc1N2 (centres unmarked) [compound 325] | > 42.6 µM | 16.3 µM | –
COc1ccc(C2CC(=O)C3=C(C2)Nc2ccccc2NC3c2cccc(OCc3ccccc3)c2)cc1 (centres unmarked) [compound 326] | > 33.3 µM | 4.69 µM | –
COc1ccc(C2CC(=O)C3=C(C2)Nc2ccccc2NC3c2cccc(F)c2)cc1 (centres unmarked) [compound 327] | > 33.3 µM | 12.5 µM | –
COc1ccc(C2CC(=O)C3=C(C2)Nc2ccccc2NC3c2ccc(N(C)C)cc2)cc1 (centres unmarked) [compound 328] | > 42.7 µM | 22.7 µM | –
COc1ccc(C2CC(=O)C3=C(C2)Nc2ccccc2NC3c2ccc(C(F)(F)F)cc2)cc1 (centres unmarked) [compound 329] | > 33.3 µM | 11.1 µM | –
COc1cccc(C2Nc3ccccc3NC3=C2C(=O)CC(c2ccccc2)C3)c1 (centres unmarked) [compound 330] | > 42.7 µM | 23.2 µM | –
COc1ccc(C2CC(=O)C3=C(C2)Nc2ccccc2NC3c2cccc(Oc3ccccc3)c2)cc1 (centres unmarked) [compound 331] | > 42.7 µM | 7.44 µM | –

Structure (SMILES) | IC50 [1, 7] | EC50 [2, 8] | also measured
CCOc1ccc(C2Nc3ccccc3NC3=C2C(=O)CC(c2ccc(OC)cc2)C3)cc1 (centres unmarked) [compound 332] | > 42.7 µM | 9.74 µM | –
COc1ccc(C2CC(=O)C3=C(C2)Nc2ccccc2NC3c2cc(Br)ccc2OC)cc1 (centres unmarked) [compound 335] | > 42.7 µM | 11.9 µM | –
COc1ccc(C2CC(=O)C3=C(C2)Nc2ccccc2NC3c2cc(OC)ccc2OC)cc1 (centres unmarked) [compound 336] | > 42.7 µM | 13.8 µM | –
O=C1CC(c2ccc(Cl)cc2)CC2=C1C(c1cccc([N+](=O)[O-])c1)Nc1ccccc1N2 (centres unmarked) [compound 337] | > 42.7 µM | 17.5 µM | –
CCCCOc1ccccc1C1Nc2ccccc2NC2=C1C(=O)CC(c1ccccc1)C2 (centres unmarked) [compound 338] | > 42.7 µM | 16.9 µM | –
COc1cc(C2Nc3ccccc3NC3=C2C(=O)CC(c2ccccc2)C3)cc(OC)c1OC (centres unmarked) [compound 339] | > 42.7 µM | 9.15 µM | –
O=C1CC(c2ccc(Cl)cc2)CC2=C1C(c1ccccc1Cl)Nc1ccccc1N2 (centres unmarked) [compound 340] | > 42.7 µM | 5.09 µM | –
COc1cc(C2Nc3ccccc3NC3=C2C(=O)CC(c2ccc(Cl)cc2)C3)cc(Br)c1O (centres unmarked) [compound 342] | > 42.7 µM | 4.19 µM | –
O=C1CC(c2ccccc2)CC2=C1C(c1ccc(C(F)(F)F)cc1)Nc1ccccc1N2 (centres unmarked) [compound 343] | > 42.7 µM | 11 µM | –
Cc1ccc(C2Nc3ccccc3NC3=C2C(=O)CC(c2ccccc2)C3)cc1 (centres unmarked) [compound 344] | > 42.7 µM | 21.6 µM | –
O=C1CC(c2ccccc2)CC2=C1C(c1ccccc1Br)Nc1ccccc1N2 (centres unmarked) [compound 345] | > 42.7 µM | 21 µM | –
O=C1CC(c2ccc(Cl)cc2)CC2=C1C(c1cccc(Cl)c1Cl)Nc1ccccc1N2 (centres unmarked) [compound 346] | > 42.7 µM | 24.6 µM | –
COc1cccc(C2Nc3ccccc3NC3=C2C(=O)CC(c2ccccc2)C3)c1OC (centres unmarked) [compound 347] | > 42.7 µM | 20.7 µM | –
COc1cccc(C2Nc3ccccc3NC3=C2C(=O)CC(c2ccc(Cl)cc2)C3)c1OC (centres unmarked) [compound 348] | 29.6 µM | 4.48 µM | –
O=C1CC(c2ccc(Cl)cc2)CC2=C1C(c1ccccc1C(F)(F)F)Nc1ccccc1N2 (centres unmarked) [compound 349] | > 42.7 µM | 2.86 µM | –
O=C1CC(c2ccc(Cl)cc2)CC2=C1C(c1cccc(Cl)c1)Nc1ccccc1N2 (centres unmarked) [compound 350] | 25.1 µM | 5.21 µM | –
COc1ccc(C2Nc3ccccc3NC3=C2C(=O)CC(c2ccc(Cl)cc2)C3)cc1OC (centres unmarked) [compound 352] | > 42.7 µM | 9.61 µM | –
CCOc1cc(C2Nc3ccccc3NC3=C2C(=O)CC(c2ccc(Cl)cc2)C3)cc(Br)c1O (centres unmarked) [compound 353] | > 42.7 µM | 5.3 µM | –
Cc1cccc(C2Nc3ccccc3NC3=C2C(=O)CC(c2ccccc2)C3)c1 (centres unmarked) [compound 354] | > 42.7 µM | 20.5 µM | –
O=C1CC(c2ccc(Cl)cc2)CC2=C1C(c1ccc(Cl)c(Cl)c1)Nc1ccccc1N2 (centres unmarked) [compound 355] | > 42.7 µM | 5.48 µM | –
COc1ccc(OC)c(C2Nc3ccccc3NC3=C2C(=O)CC(c2ccc(Cl)cc2)C3)c1 (centres unmarked) [compound 356] | > 42.7 µM | 16.1 µM | –
COc1ccc(C2CC(=O)C3=C(C2)Nc2ccccc2NC3c2cccc(Cl)c2Cl)cc1 (centres unmarked) [compound 357] | > 42.7 µM | 7.01 µM | –
Cc1ccc(C2Nc3ccccc3NC3=C2C(=O)CC(c2ccccc2)C3)cc1[N+](=O)[O-] (centres unmarked) [compound 358] | > 42.7 µM | 20.4 µM | –
